Laboratory results published in patent US5919464A, “Treatment of aberrant cellular states with biomodulators” (University of New Mexico, priority 1993, dated 1999).

Tested on: B16 melanoma cells
Assay: effect of swainsonine on cytotoxic T-lymphocytes (51Cr cytotoxicity assay)
Type: in vivo, mouse
Method: The cytotoxicity assay used two targets: YAC-1, for natural killer cell targets and B16 melanoma cells, for cytolytic T-cell targets. The YAC-1 cells were labelled in GKN (glucose/KCl/NaCl) with ^51 Cr (NEN-DuPont,400-1200 Ci/g activity) for 60 min. The B16's were ^51 Cr labelled in complete α-MEM media for 60 min. Both targets were washed twice through whole fetal calf serum to remove damaged and dead cells and then suspended in complete RPMI at a final concentration of 1×10^5 cells/ml. The spleen cells (effector cells) were plated in round bottom 96 well trays starting at 1×10^7 cells/ml (100μl/well), using a halving dilution that provided splenocyte concentrations of 10^6, 5×10^5, 2.5×10^5, 1.25×10^5, 6.25×10^4 and 3.125×10^4, all done in triplicate. The target cells were added at 1×10^4 cell/100 μl/well; this gave an effector:target cell ratio ranging from 100:1 to 3:1. Controls included spontaneous ^51 Cr release and 100% lysis (10% triton treatment). The trays were centrifuged at 50×g for 5 min. and incubated in a CO2 incubator at 37° C. for 16 hours. The trays were spun again at 50×g for 5 minutes and 100 μl removed from each well for counting. A Packard gamma counter (United Technologies) was used for counting. Each sample was counted for 1 min. giving a 5% counting efficiency. The following equation was used to determine percent lysis. [formula]
The effector:target ratios were then plotted against percent lysis and a simple line equation was determined for each treatment group. The slope of this line was then used to determine the total effector kill efficiency.
The ^51 Cr cytotoxicity assay was also run with the B16 melanoma cells as the target and the splenocytes from the same mice as above as the effector cells. The baseline mice (no tumor/no Sw) and the control mice (tumor/no Sw) had very similar line shapes and slopes. There were significant differences (p=0.03) between the presence and absence of tumor (see Table in FIG. 68).

Which “increase in line slope (kill efficiency)” value (0.1 μg Sw alone) does the source give for O[C@H]1[C@H]2[C@H](O)CCCN2C[C@H]1O [Swainsonine, swainsonine] here?
Its value is 104%.

What about the “CTL activity before exposure to specific target” value (0.1 μg Sw for 3 weeks, in words) of the same compound?
Its value is “significant increase in the CTL activity”.

What about the “convertability from NK to CTL” value (0.1 μg Sw with tumors, tumor control 17.5%) of the same compound?
Its value is 39%.
